Laboratory results published in patent publication US9510593B2, “S-benzylthiouracil compounds and methods of enhancing plant root growth” (Valent BioSciences Corporation, priority 2014, dated 2016).
“Also recorded” adds a separate entry of the source.

Columns and labels:
Assay type in all cases: in vivo
rice = assay: Rice pouch assay: growth of primary root and shoot; settings: for Shoot Length: control 1.7
Method: Seeds were placed in germination pouches consisting of germination paper as an insert in a gas-permeable 16×14 cm plastic pouch (CYG Pouch; Mega International, St. Paul, Minn.). In pouch solution evaluation, S-Benzylthiouracil compounds or their salts were dissolved in a small volume of DMSO and added to sterile water with a maximum of 0.5% v/v DMSO at final dilution. The S-Benzylthiouracil solution was subsequently pipetted into the growth pouch, followed by the addition of seeds of the crop being tested. The pouches were arranged in a randomized complete block design in growth racks and placed in 19-liter polycarbonate food storage containers (Rubbermaid Commercial Products, Winchester, Va.). The sealed containers were held in an upright growth cabinet maintained at 25 C with a 12 hour light: 12 hour dark photoperiod. For rice, plants were harvested at 6 d, while in mungbean and corn, the plants were harvested at 4 d post sowing. Measurements were performed on the primary root and shoot of each seedling. The growth of the primary root of rice was examined in the pouch assay system. The results of the testing, presented as percent change in root length across all S-Benzylthiouracil compounds, are shown below.

[1] = test system: Maize (cultivar; Kuromochi); assay: Maize growth promotion by seed treatment; settings: for Percent (shoot weight, untreated control = 100) / Average weight of the shoots: 18th day after seeding; for Average weight of the shoots: control 3.8
Method: Maize seeds (cultivar; Kuromochi) were treated with Compound 1 at dose rates of 0.005 grams to 0.5 gram per 100 kilogram seeds. The seeds were sown into a soil pot (one seed/pot) and then cultivated in a growth chamber at a temperature of 27° C. and a day length of 16 hours for 18 days. On the 18th day after seeding, the fresh shoot weight of each plant was examined for 3 replicates.

[2] = test system: Rice (cultivar; Nipponbare); assay: Rice growth enhancement by seed treatment under low temperature stress; set-up: Average weight of the shoots: unit not given here; settings: for Average weight of the shoots: 4° C. for 6 days, 27th day, control 15.4
Method: Rice seeds (cultivar; Nipponbare) were treated with the Compound 1 at dose rates of 0.5 gram to 50 grams per 100 kilogram seeds. Treated rice seeds were sown and cultivated in 2-fold diluted Kimura B hydroponic solution (Plant Science 119:39-47 (1996) in a growth chamber at a temperature of 28° C. (day)/23° C. (night) and a day length of 12 hours for 10 days.
Following hydroponic cultivation for 10 days the plants were exposed to low temperature stress at 4° C. for 6 days at a day length of 12 hours in a growth chamber. After the low temperature stress treatment, the plants were transferred to 4-fold diluted Hoagland's hydroponic solution (California Agricultural Experiment Station 1950 Circular 347 pp. 34) and cultivated for […] at a temperature of 28° C. and a day length of 12 hours. On the 27th day of the sequential hydroponic cultivation, each fresh shoot weight of the plant was measured for 4 replicates.

Wheat (cultivar; Apogee) = assay: Wheat yield enhancement by foliar spray treatment under high temperature stress; settings: for Average fresh weight of young ears: 36° C./32° C. for 7 days, 56th day after seeding, control 1.68
Method: Wheat (cultivar; Apogee) was sown in soil pots (5 seeds/pot) and then cultivated in a growth chamber at a temperature of 18° C. (day)/15° C. (night) and at a day length of 12 hours for 28 days. Plants were thinned to 3 plants/pot. On the 28th day after sowing, the plants were treated by foliar spray application with a solution containing the test compound. On the 2nd day after the spray application the plants were subjected to high temperatures for 7 days in a growth chamber 36° C. (day)/32° C. (night) and a day length of 12 hours. After the stress treatment, the plants were cultivated in a growth chamber at a temperature of 18° C. (day)/15° C. (night) and a day length of 12 hours. On the 56th day after seeding, the total fresh weight of the young ears from the 3 plants in each pot was measured (n=8 replicates).
Wheat seeds (cultivar; Apogee) were sown in soil pots (5 seeds/pot) and then cultivated in a growth chamber at a temperature of 18° C. (day)/15° C. (night) and at a day length of 12 hours for 28 days. The wheat plants on the 28th day after seeding were treated by foliar spray application with a solution containing the Compound 1 at concentrations of 1 ppm to 100 ppm. As an untreated control group, the plants were treated with blank solution without Compound 1. Three seedlings per pot were used for the test. On the 2nd day after the spray application, the plants were treated with high temperature for 7 days in a growth chamber at a temperature of 36° C. (day)/32° C. (night) and a day length of 12 hours. After the stress treatment, the plants were cultivated in a growth chamber at a temperature of 18° C. (day)/15° C. (night) and a day length of 12 hours. On the 56th day after seeding, total fresh weight of young seed heads from 3 plants in each pot were measured for 8 replicates of each treatment.

[3] = seed treatment 0.005 grams/100-kg seeds
[4] = seed treatment 0.05 grams/100-kg seeds
[5] = seed treatment 0.5 grams/100-kg seeds

For `Oc1ccnc(SCc2cccc(F)c2)n1` [Compound 1, S-(3-Fluorobenzyl)-2-thiouracil], the “Root Length” value (rice; 10 mg/liter, 6 days after sowing, untreated control 9.67) was 10.80 cm, the “Root Length” value (rice; 30 mg/liter, 6 days after sowing, untreated control 9.67) was 10.34 cm and the “Shoot Length” value (rice; 7.5 ppm, 6 days after treatment) was 2.2 cm. For the same compound, the “Root Length” value (rice; 7.5 ppm, 6 days after treatment, control 5.1) was 7.8 cm, the “Percent Change in Primary Root Length in Rice” value (rice; 10 ppm (10 mg/L), benzyl ring substitutions, vs control) was 19.8% and the “Percent Change (rice primary root growth)” value (rice; 10 ppm, compounds and water-soluble salts, 6 days after sowing) was 19.8%. The “Shoot Length” value (rice; 30 ppm, 6 days after treatment) was 2.2 cm, the “Root Length” value (rice; 30 ppm, 6 days after treatment, control 5.1) was 7.3 cm and the “Shoot Length” value (rice; 100 ppm, 6 days after treatment) was 1.9 cm. The “Root Length” value (rice; 100 ppm, 6 days after treatment, control 5.1) was 5.2 cm, the change in vivo at 10 ppm (rice; Oryza sativa, 144 h, 10 ppm (10 mg/L), benzyl ring substitutions, vs control, read-out: Percent Change in Primary Root Length in Rice) was 19.8% and the “Effect on rice root growth, in words” value (rice; rice pouch assay, compared to control) was “greatest increases in root length compared to all of the other tested compounds; also recorded: dose-dependent increase in root length”. The “Average fresh shoot weight versus untreated control, in words” value ([1]; across 0.005 to 0.5 gram per 100 kilogram seeds) was “larger than that of the untreated control group”, the “Percent (shoot weight, untreated control = 100)” value [1, 3] was 104% and the “Average weight of the shoots” value [1, 3] was 4.0 grams/plant. The “Percent (shoot weight, untreated control = 100)” value [1, 4] was 133%, the “Average weight of the shoots” value [1, 4] was 5.1 grams/plant and the “Percent (shoot weight, untreated control = 100)” value [1, 5] was 115%. For the same compound, the “Average weight of the shoots” value [1, 5] was 4.4 grams/plant, the “Average weight of the shoots” value ([2]; 0.5 grams/100-kg seeds) was 19.7 and the “Percent (shoot weight, untreated control = 100)” value ([2]; 0.5 grams/100-kg seeds, low temperature stress) was 128%. For the same compound, the “Average weight of the shoots” value ([2]; 5 grams/100-kg seeds) was 39.8, the “Percent (shoot weight, untreated control = 100)” value ([2]; 5 grams/100-kg seeds, low temperature stress) was 258% and the “Average weight of the shoots” value ([2]; 50 grams/100-kg seeds) was 34.8. The “Percent (shoot weight, untreated control = 100)” value ([2]; 50 grams/100-kg seeds, low temperature stress) was 226%, the “Average fresh shoot weight versus untreated control, in words” value ([2]; across 0.5 to 50 grams per 100 kilogram seeds, low temperature stress) was “larger than that of the untreated control” and the “Average fresh weight of young seed heads versus untreated controls, in words” value (Wheat (cultivar; Apogee); 1 ppm to 100 ppm foliar spray, high temperature stress) was “larger than those of the untreated controls”. For the same compound, the “Average fresh weight of young ears” value (Wheat (cultivar; Apogee); foliar spray 1 ppm) was 1.71 grams/3 plants, the “Percent (untreated control = 100)” value (Wheat (cultivar; Apogee); foliar spray 1 ppm, high temperature stress) was 105% and the “Average fresh weight of young ears” value (Wheat (cultivar; Apogee); foliar spray 10 ppm) was 1.70 grams/3 plants. For the same compound, the “Percent (untreated control = 100)” value (Wheat (cultivar; Apogee); foliar spray 10 ppm, high temperature stress) was 104%, the “Average fresh weight of young ears” value (Wheat (cultivar; Apogee); foliar spray 100 ppm) was 1.87 grams/3 plants and the “Percent (untreated control = 100)” value (Wheat (cultivar; Apogee); foliar spray 100 ppm, high temperature stress) was 115%.
